One experiment deals with RAW264.7 cells. Nature of the experiment: RANKL-induced transcription of osteoclastogenesis markers in RAW264.7 cells (real-time PCR). The settings on record: RANKL 15 ng/mL, 72 h, 1 µM soybean LPI. The format is cell-based, murine. On the procedure:
Total RNA was extracted using RNeasy isolation kits, cDNAs were obtained using QuantiTect Reverse Transcription kits, and real-time PCRs were performed with QuantiTect SYBR Green PCR kits (all from Qiagen, Hilden, Germany), according to the manufacturer instructions. The primers used for the real-time PCRs and their annealing temperatures are listed in the Additional file 1: Table S1. Human hypoxanthine phosphoribosyltransferase 1 (HPRT1) or murine β2-microglobulin were followed as housekeeping genes. The real-time PCR programme consisted of an initial 15 min at 95 °C, and then 45 cycles as follows: 94 °C for 15 s, annealing temperature of each primer for 30 s, and 72 °C for 30 s. The real-time PCR machine used was a LightCycler 480 Instrument II (Roche, Indianapolis, IN, USA).
For transient interference of Gpr55, RAW264.7 cells were plated at 6 × 10^5 cells/well in six-well plates in growth medium without antibiotics. Twenty-four hours later, the cells were transfected with 250 pmol/well non-targeting small-interfering (si)RNAs (si-NT; siGENOME siRNA Pool #2; D-001206-14; Dharmacon, Chicago, IL, USA) or Gpr55-specific siRNAs (si-GPR55; siGENOME mouse GPR55 SMART pool; M-043590-01; Dharmacon) using Lipofectamine LTX and Plus Reagent, according to the manufacturer instructions. Twenty-four hours later, the cells were plated for the different assays or for RNA extraction. The efficiency of interference was monitored by real-time PCR after 72 h of interference, using the primers listed in the Additional file 1: Table S1. β2-microglobulin was followed as a housekeeping gene.
For the osteoclastogenesis in-vitro assay, RAW264.7 cells were plated in differentiation medium (α-MEM with 10% heat-inactivated FBS, 2 mM L-glutamine, 100 U/mL penicillin, and 100 ug/mL streptomycin) at a density of 5 × 10^3 cells/well in 24-well plates on coverslips for morphological analysis, or at 2 × 10^4 cells/well in six-well plates for RNA extraction. Twenty-four hours later and every 48 h, the medium was replaced and the cells were treated with 15–30 ng/mL RANKL with DMSO and/or PBS as carriers, or with GPR55 antagonists/ agonists (0.5 µM ML-191, 30 µM O1918, 0.5 µM CBD, 0.5 μM CID16020046 1 µM soybean LPI, 1 μM ML-184), or with the peptides (150 nM peptide-P1; or the irrelevant peptide, Irr_P). Twenty-four hours after the last addition, the cells were fixed with 4% paraformaldehyde for morphological analyses or harvested for RNA extraction (see above).
(In qPCR the cycle at which signal appears reflects the starting amount.)

Experiment [1] concerns osteoclasts derived from RAW264.7 cells. Nature of the experiment: Osteoclast functional assay (bone resorption on bovine cortical bone slices). The format is cell-based, murine. The settings on record: 0.5 µM CID16020046, 15 ng/mL RANKL, 7 days. On the procedure:
RAW264.7 cells were plated in differentiation medium at a density of 1250 cells/100 µL on 0.2-mm-thick bovine cortical bone slices (BoneSlices.com, Jelling, Denmark) in 96-well plates. Six hours later, 100 µL differentiation medium with RANKL (15 ng/mL, final concentration) was added, in the presence of a carrier or in combination with the GPR55 modulators. The media with the different compounds were replaced every 48 h, for a total of 7 days. At the end of this period, the cells were detached with a 10% bleach solution, and the resorption excavations were visualised by using Toluidine Blue staining (Sigma-Aldrich). Images of the resorption areas were obtained under the microscope (SW380T; Swift Optical Instruments, Inc., TX, USA) using the 10 × objective, and acquired with a digital camera (Swiftcam SC1003; Swift Optical Instruments, Inc.). The total eroded surface underwent blinded quantification using ImageJ (NIH), and was subdivided into pit and trench surfaces. Pits were characterised as round excavations with well-defined edges where the ratio between length and width was < 2.0. Trenches were defined as elongated excavations with well-defined edges whose length was at least twice the wide, and with clear signs of continued resorption. The prevalence of trenches was calculated as a proportion (%) of the trench surface relative to the total eroded surface.

The next experiment has as its system GPR55. Particulars: ref [55]; cited from earlier work. The protocol:
GPR55 involvement in osteoclast functions was directly assessed using in-vitro assays of bone resorbing activity. As the transient silencing by GPR55-specific siRNAs in precursor cells was not applicable to this long-term differentiation assay, pharmacological perturbation of GPR55 was carried out with only the most specific antagonists (ML-191, CID16020046) and LPI. RAW264.7 cells were plated on cortical bone slices and RANKL-differentiated for 7 days in the absence or presence of the different GPR55 regulators. At the end of the differentiation, the cells were detached and the resorbing area ...

With `Cc1ccc(-c2n[nH]c3c2C(c2cccc(O)c2)N(c2ccc(C(=O)O)cc2)C3=O)cc1` (centres unmarked) [CID16020046], the “reduction of LPI-stimulated Ctr transcription” value in the experiment on RAW264.7 cells (0.5 µM CID16020046) is reported as 50%. Further, the “block of LPI-stimulated Nfatc1 transcription” value with RAW264.7 cells (0.5 µM ML-191 or 0.5 µM CID16020046) is “completely blocked”. The “inhibition of RANKL-promoted osteoclast degrading activity” value in experiment [1] is given as “only slightly inhibited”. Besides, the “reduction of relative trench contribution compared to RANKL” value in experiment [1] (p < 0.05) is listed as “about 30%”. In the experiment with GPR55, the “mode of action on GPR55” value is listed as “GPR55 inverse agonist”.
